The record followed here is patent publication US6365616B1, “Methimazole derivatives and tautomeric cyclic thiones to treat autoimmune diseases” (Sentron Medical, Inc., priority 1998, dated 2002).

The assay relates to swine class I promoter (PD1). As to the kind of experiment: Luciferase assay, FRTL-5 cells stably transfected with class I promoter-luciferase chimeras. Format: cell-based. The note with it: for inhibition at 25 µM / inhibition at 100 µM / inhibition at 1000 µM / inhibition at 10 µM: Sus scrofa. An excerpt: The swine PD1 5′-flanking sequence-CAT chimeras (−1100, −203, and −127), as well as two mutants with the CRE site with −107 to −100 bp deleted (−203ΔCRE and −127ΔCRE) were used to create luciferase reporter gene constructs. The inserts were released by restriction enzyme digestion, purified from agarose gel using QIAEX (QIAGEN, Chatsworth, Calif.) and ligated in the NheI-HindIII site of the PGL-2 basic vector (PROMEGA, Madison, Wis.) using a DNA ligation kit from TAKARA biomedicals (TAKARA SHUZO Co). JM109 bacterial competent cells (PROMEGA, Madison, Wis.) were transformed with the ligation reaction and plated in agar plates for 12 h at 37° C. The colonies were picked and screened with minipreps using QIAprep spin plasmid kit (QIAGEN, Chatsworth, Calif.) and restriction enzyme digestion. The plasmids were then purified by CsCl gradient centrifugation.
The PD1-PGL-2 basic constructs and the Class II-PGL-2 basic constructs were stably transfected in the FRTL-5 cells using a Lipofectamine (GIBCO, Life Technologies, Inc.) method. Near confluent cells in 6H medium were cotransfected with 20 μg of plasmid DNA and 2 μg of a pcDNA3neo or a pPUR selection vector (CLONTECH, Palo Alto, Calif.). After 24-48 hours, 400 μg/ml of G418 (GIBCO, Life Technologies, Inc.) or 10 μM of puromycin (SIGMA) were added to the medium. After 3 weeks the antibiotic-resistant colonies were cloned by limiting dilution and screened to determine their interferon sensitivity. At least 5 cell lines of each construct were isolated, each of whose activity was increased by adding 100 U/ml γ interferon to the medium of the cells. The following data (Tables 10-13) were obtained with one clone of each of the class I or class II-luciferase chimera, but were representative of at least three other clones of each.
Luciferase activity was measured using the Luciferase assay system (PROMEGA, Madison, Wis.). Briefly, treated or untreated cells from a 100 mm culture dish were washed with PBS, scraped and collected in microfuge tubes. The pellet was dissolved in 100 μl 1× reporter lysis buffer and incubated at room temperature for 15 minutes. Cells were frozen in dry ice plus ethanol and thawed in water at room temperature. After vortexing for 10 sec, tubes were centrifuged at 12,000×g for 5 min. Twenty μl of the supernatant were mixed with 100 μl of Luciferase assay reagent and immediately placed in a luminometer. Light was measured for a period of 10 sec after a 2 sec delay.
Treatment of cells, maintained either in the presence of TSH or its absence, with 100 U/ml interferon, increased class I and class II promoter activity (Table 10). In this experiment FRTL-5 cells were grown to 80% confluency in 6H medium with TSH then treated with 100 U/ml γ-interferon, 5 mM MMI or both together. Luciferase activity was measured after 40 hours as described. Several points are notable. First, interferon increases both class I and class II promoter activity in the stable transfectants. Second, MMI inhibits both interferon-increased class I and interferon-increased class II promoter activity.

Setting [1] is: FRTL-5, 25 μM, 6H medium, 40 hours, read-out: % inhibition of basal p(−203)LUC class I promoter activity.
Where [2] appears, read: FRTL-5, 100 μM, 6H medium, 40 hours, read-out: % inhibition of basal p(−203)LUC class I promoter activity.
Where [3] appears, read: FRTL-5, 1.0 mM, 6H medium, 40 hours, read-out: % inhibition of basal p(−203)LUC class I promoter activity.
Where [4] appears, read: FRTL-5, 10 μM, 100 U/ml γ-interferon, 6H medium, 40 hours, read-out: % inhibition of IFN-increased p(−203)LUC class I promoter activity.
Where [5] appears, read: FRTL-5, 100 μM, 100 U/ml γ-interferon, 6H medium, 40 hours, read-out: % inhibition of IFN-increased p(−203)LUC class I promoter activity.
The mark [6] stands for this setting: FRTL-5, 1.0 mM, 100 U/ml γ-interferon, 6H medium, 40 hours, read-out: % inhibition of IFN-increased p(−203)LUC class I promoter activity.
Where [7] appears, read: FRTL-5, read-out: % inhibition of IFN-increased p(−203)LUC class I promoter activity.
The mark [8] stands for this setting: FRTL-5, read-out: % inhibition of basal p(−203)LUC class I promoter activity.

Read-outs that look alike come from different tables or passages of the source.

As usually defined, the inhibition is the share of the control response that was lost under treatment. For `Sc1ncc[nH]1` [Compound 3, 2-Mercaptoimidazole], the inhibition at 25 µM under setting [1] was 0%. Moreover, under setting [2], the inhibition at 100 µM is 0%. Also, the inhibition at 1000 µM under setting [3] amounted to 0%.
For the molecule `O=[N+]([O-])c1ccc2[nH]c(S)nc2c1` [Compound 5, 2-Mercapto-5-nitrobenzimidazole], the inhibition at 10 µM under setting [4] stood at 0%. The inhibition at 25 µM under setting [1] was 0%. Besides, the inhibition at 100 µM turned out to be 0% under setting [2] and 0% under setting [5]. The inhibition at 1000 µM came to 0% under setting [3] and 9 ± 7% under setting [6].
For `Cn1c(-c2ccccc2)cnc1S` [Compound 10, 5-Phenylmethimazole], the inhibition at 10 µM under setting [4] amounted to 45 ± 7%. Further, the inhibition at 25 µM under setting [1] turned out to be 41 ± 5%. Moreover, the inhibition at 100 µM under setting [2] turned out to be 51 ± 3% and the inhibition at 100 µM under setting [5] amounted to 90 ± 17%. Further, the inhibition at 1000 µM reads like this: under setting [3], 52 ± 8%; under setting [6], 90 ± 13%.
Turning to `Sc1nc2ccccc2[nH]1` [Compound 4, 2-Mercaptobenzimidazole], under setting [7], the inhibition at 10 µM was 0%, the inhibition at 100 µM is 0% and the inhibition at 1000 µM was determined as 39 ± 6%. Further, under setting [8], the inhibition at 25 µM was 0%, the inhibition at 100 µM turned out to be 0% and the inhibition at 1000 µM is 50 ± 5%.
Consider `Cc1ccc2[nH]c(S)nc2c1` [Compound 6, 2-Mercapto-5-methylbenzimidazole], for which the inhibition at 25 µM under setting [1] is 0%. Also, the inhibition at 100 µM under setting [2] was 0%. In addition, the inhibition at 1000 µM is 0% under setting [3] and 19 ± 10% under setting [6].
For the molecule `Cc1cnc(S)n1C` [Compound 9, 5-Methylmethimazole], the inhibition at 10 µM under setting [4] amounted to 0%. The inhibition at 25 µM under setting [1] was 0%. Also, the inhibition at 100 µM worked out at 0% under setting [2] and 0% under setting [5]. The inhibition at 1000 µM stood at 10 ± 10% under setting [3] and 15 ± 11% under setting [6].
As to `Cc1ncc([N+](=O)[O-])n1CCO` [Compound 2, 2-Methyl-5-nitro-1-imidazole ethanol], the inhibition at 10 µM under setting [4] turned out to be 0%. Further, the inhibition at 25 µM under setting [1] came out at 0%. In addition, the inhibition at 100 µM is, setting by setting: under setting [2], 0%; under setting [5], 10 ± 6%. Further, the inhibition at 1000 µM by setting is: under setting [3], 42 ± 6%; under setting [6], 57 ± 5%.
With `Cn1ccn(C)c1=S` [Compound 8, N-Methylmethimazole], the “% inhibition of IFN-increased p(−203)LUC class I promoter activity” value by setting is: (10 μM, 100 U/ml γ-interferon, 6H medium, 40 hours) 0%; (100 μM, 100 U/ml γ-interferon, 6H medium, 40 hours) 42 ± 14%; (1.0 mM, 100 U/ml γ-interferon, 6H medium, 40 hours) 77 ± 10%. The “% inhibition of basal p(−203)LUC class I promoter activity” value is, setting by setting: (25 μM, 6H medium, 40 hours) 9 ± 6%; (100 μM, 6H medium, 40 hours) 44 ± 10%; (1.0 mM, 6H medium, 40 hours) 51 ± 7%.
Consider `CSc1nccn1C` [Compound 7, S-Methylmethimazole], for which the inhibition at 10 µM under setting [4] worked out at 0%. The inhibition at 25 µM under setting [1] came to 0%. The inhibition at 100 µM is, setting by setting: under setting [2], 10 ± 6%; under setting [5], 24 ± 6%. The inhibition at 1000 µM under setting [3] is 44 ± 4% and the inhibition at 1000 µM under setting [6] was 62 ± 9%.
Turning to `Cn1ccnc1S` [Compound 1, 1-Methylimidazole-2-thiol], the “effect on basal p(−203) class I luciferase activity” value (1 or 5 mM, stable transfectants) is given as “no significant effect”. Besides, under setting [4], the inhibition at 10 µM turned out to be 0%. In addition, the inhibition at 25 µM under setting [1] was 0%. Also, the inhibition at 100 µM runs as follows: under setting [2], 0%; under setting [5], 0%. The inhibition at 1000 µM runs as follows: under setting [3], 0%; under setting [6], 45 ± 10%. Further, the “Luciferase activity + 5 mM MMI” value (Vector-LUC Control, 40 hours) is 100 ± 6 % Control; the “Luciferase activity + 5 mM MMI” value (p(−127) class I-LUC, 40 hours) is recorded as 135 ± 17 % Control; the “Luciferase activity + 5 mM MMI” value (p(−203) class I-LUC, 40 hours) is given as 105 ± 38 % Control. Also, the “Luciferase activity +γ-IFN + 5 mM MMI” value is listed as 105 ± 5 % Control (Vector-LUC Control, 40 hours); 101 ± 4 % Control (p(−127ΔCRE) class I-LUC, 40 hours); 106 ± 6 % Control (p(−203ΔCRE) class I-LUC, 40 hours).

B1: γ-IFN: rat recombinant γ-interferon, 100 U/ml, used to increase MHC class I and class II expression in FRTL-5 cells (protein, UniProt P01581 23-156, looked up)
Interferon gamma: QGTLIESLESLKNYFNSSSMDAMEGKSLLLDIWRNWQKDGNTKILESQIISFYLRLFEVLKDNQAISNNISVIESHLITNFFSNSKAKKDAFMSIAKFEVNNPQIQHKAVNELIRVIHQLSPESSLRKRKRSRC
As for B1, the “Luciferase activity +γ-IFN” value turned out to be 102 ± 6 % Control (Vector-LUC Control, 100 U/ml γ-interferon, 40 hours); 180 ± 19 % Control (p(−127) class I-LUC, 100 U/ml γ-interferon, 40 hours); 92 ± 10 % Control (p(−127ΔCRE) class I-LUC, 100 U/ml γ-interferon, 40 hours); 495 ± 30 % Control (p(−203) class I-LUC, 100 U/ml γ-interferon, 40 hours); 139 ± 16 % Control (p(−203ΔCRE) class I-LUC, 100 U/ml γ-interferon, 40 hours).
